# According to patent EP0939136A1, “Assay for predicting the angiographic response to lipid-lowering therapy in patients” (Academisch Ziekenhuis bij de Universiteit van Amsterdam, priority 1998, dated 1999):
# Legend:
# Type in all cases: in vivo, male patients
# [1] = REGRESS trial: computer-assisted quantitative coronary angiography (MSD, MOD); settings: for MOD decrease: median (IQR) / MSD decrease: mean (SD): 40 mg/day, two years, larger figure = more progression of atherosclerosis
# Method: (§1) 807 Male patients participating in the Regression Growth Evaluation Statin Study (REGRESS), which has previously been described in detail (Kuivenhoven et al., Arterioscler. Thromb. Vasc. Biol. 17:560-568 (1997)) were prospectively studied. In short, study participants were required to have at least one coronary artery with a stenosis off >50 percent as assessed by coronary angiography, a plasma total cholesterol concentration of 155-310 mg per deciliter (4 to 8 millimole per liter) and triglycerides of 350 mg per deciliter(< 4 millimole per liter). Patients were subsequently randomized to treatment with pravastatin sodium (Pravachol®; 40 mg/day ) or to placebo for a period of two years. The placebo group contained 396 patients and the group treated with pravastatin contained 411 patients.
# Computer-assisted quantitative coronary angiography was carried out at the start and at the end of the study. The two following primary measures of outcome were used: (a) the change in the average Mean Segment Diameter (MSD) per patient (also known as Mean Lumen Diameter) reflecting diffuse changes of atherosclerosis, and (b) the change in the average Minimum Obstruction Diameter […]) which reflects the focal change of atherosclerosis. Given these definitions, one should note that a greater decrease in MSD and/or MOD reflects more progression of coronary atherosclerosis.
# (§2) The differences between carriers of the three TaqIB genotypes (i.e. B1B1, B1B2, and B2B2) were tested using one-way ANOVA or Pearson's Chi-square test. Changes in lipids, lipoproteins and angiographic parameters during the trial period were quantified with means and standard deviations, and the differences within the two medication groups were tested using one-way covariance analysis with baseline levels as covariates.
# The interaction between the three CETP TaqIB genotypes and medication (placebo/pravastatin) was tested using the interaction test of two-way covariance analysis. It was checked whether the above interaction between genotype and medication was dependent of baseline HDL cholesterol concentration, changes in HDL during the trial, baseline MSD, baseline MOD, and each of hepatic lipase or lipoprotein lipase activity by using these as covariates in two-way covariance analysis. The latter analysis was also carried out to test if the significant differences in decrease in either MSD or MOD as identified amongst the TaqIB subgroups in the placebo group, were dependent on the above parameters.
# CETP = experiment: Plasma CETP concentration by solid phase radioimmunoassay; settings: 68 pravastatin-treated subjects, P<0.001
# Method: as §1
# Plasma lipids and lipoproteins were measured using standard techniques (Groenemeyer et al., Circulation 95:2628-2653 (1997)). Due to a lack of sufficient aliquots of plasma, CETP concentrations were determined in 237 patients at baseline, and in only 68 pravastatin-treated subjects at the end of the trial. […]
# [2] = REGRESS trial: events (death and myocardial infarction); settings: 40 mg/day, two years
# Method: as §1
# Differences in rate of events between genotypes were analyzed with Pearson Chi-square tests within the medication groups, and the interaction between genotype and medication with logistic regression. Within each of the patient groups, the Hardy-Weinberg equilibrium was tested by means of gene counting and χ^2 analysis. Throughout, a P value of 0.05 was interpreted as representing a statistically significant difference. All statistical analyses were carried out with the Statistical Analysis System (SAS, version 6.1, SAS Institute, Cari, NC) and adapted from the EGRET Manual, (Statistical and Epidemiological Research Corporation, 1991, Seattle, Washington, USA).
# Abbreviations: MSD = mean segment Diameter; MOD = minimum obstruction diameter (Note: A larger figure for either a decrease in mean segment diameter (MSD) or minimum obstruction diameter (MOD) indicates more progression of atherosclerosis). SD = standard deviation; IQR = interquartile range; * P value of covariance analysis of the change measures with baseline values as covariate, or chi-square test (where appropriate), comparing the three CETP-TaqIB genotypes; ^† P value of the interaction test of the interaction between treatment (placebo/pravastatin) and the CETP TaqIB genotype (B1B1-B1B2-B2B2) of covariance analysis with baseline values as covariate or of logistic regression, where appropriate. P values while comparing TaqIB subgroup of the placebo group with the pravastatin group: ^‡ P<0.001; ^§ P<0.38; ^¶ P<0.30; ^¥ P<0.002; ** P<0.01; ^†† P<0.48. ? Events are defined as death and myocardial infarction. For conversion from mg.dL^-1 to mmol.L^-1 for total cholesterol, LDL cholesterol and HDL cholesterol levels, multiply by factor 0.02586. For conversion of triglyceride levels from mg.dL^-1 to mmol.L^-1, use 0.01129. [formula] [formula] [formula]
# [3] = REGRESS trial: in-trial changes in plasma lipids and lipoproteins; settings: 40 mg/day, two years
# Method: as §1
# Plasma lipids and lipoproteins were measured using standard techniques (Groenemeyer et al., Circulation 95:2628-2653 (1997)). Due to a lack of sufficient aliquots of plasma, CETP concentrations were determined in 237 patients at baseline, and in only 68 pravastatin-treated subjects at the end of the trial. These measurements were performed by solid phase radioimmunoassay using recombinant human protein (provided by Dr. A.Tall; Columbia University, New York) as standard and a CETP monoclonal antibody, TP2 (produced by Dr. R. Milne; University of Ottawa Heart Institute; Ottawa, McPherson et al., Arterioscler. Thromb 11:797-804 (1991). In addition, the lipase and lipoprotein lipase activities were measured as reported (Groenemeyer et al., supra).
# as §2
# [4] = CETP TaqIB genotype B1B1 (n=136)
# [5] = CETP TaqIB genotype B1B2 (n=212)
# [6] = CETP TaqIB genotype B2B2 (n=63)
compound,measurement,setting,value
"CC[C@H](C)C(=O)O[C@H]1C[C@H](O)C=C2C=C[C@H](C)[C@H](CC[C@@H](O)C[C@@H](O)CC(=O)O)[C@H]21 [Pravastatin, pravastatin sodium]",progression of coronary atherosclerosis compared with counterparts in the placebo group,"[1]; B2B2 homozygotes, end of the study",statistically non-significant larger progression
same,MOD decrease: median (IQR),[1]; [4],0.01 (.19) mm
same,MSD decrease: mean (SD),[1]; [4],0.05 (.16) mm
same,MOD decrease: median (IQR),[1]; [5],0.04 (.21) mm
same,MSD decrease: mean (SD),[1]; [5],0.07 (.20) mm
same,MOD decrease: median (IQR),[1]; [6],0.04 (.22) mm
same,MSD decrease: mean (SD),[1]; [6],0.09 (.16) mm
same,progression of coronary atherosclerosis compared with counterparts in the placebo group,"[1]; carriers of one B1 allele (B1B2), MOD, P<0.01",significantly less focal atherosclerosis
same,progression of coronary atherosclerosis compared with counterparts in the placebo group,"[1]; carriers of two B1 alleles (B1B1), smaller decreases of MSD and MOD (P<0.001, P<0.002)",significantly less progression of coronary atherosclerosis
same,plasma CETP concentration,CETP; end of the trial (baseline 2.03±0.53),1.71±0.46 µg per milliliter
same,reduction in plasma CETP concentrations,CETP; end of the trial compared with baseline,16%
same,Events (yes/no): (%),[2]; [4],2.9%
same,Events (yes/no): n,[2]; [4],4
same,Events (yes/no): (%),[2]; [5],1.9%
same,Events (yes/no): n,[2]; [5],4
same,Events (yes/no): (%),[2]; [6],0.0%
same,Events (yes/no): n,[2]; [6],0
same,HDL cholesterol incr.: mean (SD),[3]; [4],4.3 (6.2) mg.dL^-1
same,LDL cholesterol red.: mean (SD),[3]; [4],56.8 (26.7) mg.dL^-1
same,Total cholesterol red.: mean (SD),[3]; [4],53.8 (32.1) mg.dL^-1
same,Triglyceride red.: ln(g.mean) (CV),[3]; [4],7.1 (32.8) mg.dL^-1
same,HDL cholesterol incr.: mean (SD),[3]; [5],3.9 (7.0) mg.dL^-1
same,LDL cholesterol red.: mean (SD),[3]; [5],49.5 (29) mg.dL^-1
same,Total cholesterol red.: mean (SD),[3]; [5],48.3 (32.5) mg.dL^-1
same,Triglyceride red.: ln(g.mean) (CV),[3]; [5],7.1 (37.2) mg.dL^-1
same,HDL cholesterol incr.: mean (SD),[3]; [6],3.5 (6.6) mg.dL^-1
same,LDL cholesterol red.: mean (SD),[3]; [6],56.5 (33.6) mg.dL^-1
same,Total cholesterol red.: mean (SD),[3]; [6],54.1 (35.2) mg.dL^-1
same,Triglyceride red.: ln(g.mean) (CV),[3]; [6],5.3 (38.1) mg.dL^-1
